Measured values: patent publication US20150038545A1, “HYDROXYPHENYL PYRROLE COMPOUNDS CONTAINING AN HYDROXAMIC ACID AS HDAC INHIBITORS AND MEDICINAL APPLICATIONS THEREOF” (UNIVERSIDAD DEL PAÍS VASCO, priority 2011, published 2015)

How the values were obtained:
HT-1080 = assay: Cancer cell growth inhibition (CellTiter-Glo), HT-1080; assay type: cell-based; settings: Homo sapiens; Fibrosarcoma, HT-1080, 72 h treatment
Description: (§1) Cell culture-based assays were used to evaluate the ability of compounds of the invention to inhibit cancer cell growth.
(§2) Cells were obtained from the American Type Culture Collection (ATCC). Cells were cultured at 37° C. with 5% CO2 in the appropriate growth medium (see table below), and harvested respectively during the logarithmic growth period and counted with hemocytometer. The cell viability was examined by trypan blue exclusion. Cell concentrations were adjusted to 5.56×10^4 cells/ml with respective medium.
(§3) Stock solutions of test compounds and positive drugs Doxorubicin (Zhejiang, Haizheng, China), Cisplatin (Nanjing Zhiyao, China) and Mitomycin (Zhejiang, Haizheng, China) were prepared in dimethyl sulphoxide (DMSO) or PBS at 20 mM.
(§4) In order to determine the IC50 for each compound, experiments were carried out in 96-well plates and the cell lines seeded at a density of 5,000 cells/well. […] All treatments were performed in triplicate. 10 μl of drug solution was added to each well and incubated for 72 hours. At the end of the incubation, 100 μl of the CellTiter-Glo Reagent were added to each well and the contents were mixed for 2 munites on an orbital shaker to induce cell lysis. The plate was incubated at room temperature for 10 minutes to stabilize luminiscent signal, and luminiscent was recorded. […] In order to calculate IC50 values, dose-responsive curves were fitted using nonlinear regression model with a sigmoidal dose response.

MCF-7 = assay: Cancer cell growth inhibition (CellTiter-Glo), MCF-7; assay type: cell-based, Human; settings: Breast Cancer, MCF-7, 72 h treatment
Description: as §1, §2, §3, §4

SK-OV-3 = assay: Cancer cell growth inhibition (CellTiter-Glo), SK-OV-3; assay type: cell-based, Human; settings: Ovarian Cancer, SK-OV-3, 72 h treatment
Description: as §1, §2, §3, §4

Calu-6 = assay: Cancer cell growth inhibition (CellTiter-Glo), Calu-6; assay type: cell-based, Human; settings: Lung Cancer, Calu-6, 72 h treatment
Description: as §1, §2, §3, §4

Bx-PC-3 = assay: Cancer cell growth inhibition (CellTiter-Glo), Bx-PC-3; assay type: cell-based, Human; settings: Pancreatic Cancer, Bx-PC-3, 72 h treatment
Description: as §1, §2, §3, §4

DLD-1 = assay: Cancer cell growth inhibition (CellTiter-Glo), DLD-1; assay type: cell-based, Human; settings: Colorectal Cancer, DLD-1, 72 h treatment
Description: as §1, §2, §3, §4

LoVo = assay: Cancer cell growth inhibition (CellTiter-Glo), LoVo; assay type: cell-based, Human; settings: Colorectal Cancer, 72 h treatment
Description: as §1, §2, §3, §4

A549 = assay: Cancer cell growth inhibition (CellTiter-Glo), A549; assay type: cell-based, Human; settings: Lung Cancer, A549, 72 h treatment
Description: as §1, §2, §3, §4

U-87MG = assay: Cancer cell growth inhibition (CellTiter-Glo), U-87MG; assay type: cell-based, Human; settings: Glioblastoma, 72 h treatment
Description: as §1, §2, §3, §4

DU145 = assay: Cancer cell growth inhibition (CellTiter-Glo), DU145; assay type: cell-based, Human; settings: Prostate Cancer, DU145, 72 h treatment
Description: as §1, §2, §3, §4

RPMI-8226 = assay: Cancer cell growth inhibition (CellTiter-Glo), RPMI-8226; assay type: cell-based, Human; settings: Orthotopic Multiple Myeloma, RPMI-8226, 72 h treatment
Description: as §1, §2, §3, §4

BGC-823 = assay: Cancer cell growth inhibition (CellTiter-Glo), BGC-823; assay type: cell-based, Human; settings: Gastric Cancer, BGC-823, 72 h treatment
Description: as §1, §2, §3, §4

HT-29 = assay: Cancer cell growth inhibition (CellTiter-Glo), HT-29; assay type: cell-based, Human; settings: Colorectal Cancer, HT-29, 72 h treatment
Description: as §1, §2, §3, §4

Hep3B = assay: Cancer cell growth inhibition (CellTiter-Glo), Hep3B; assay type: cell-based, Human; settings: Liver Cancer, 72 h treatment
Description: as §1, §2, §3, §4

LNCaP = assay: Cancer cell growth inhibition (CellTiter-Glo), LNCaP; assay type: cell-based, Human; settings: Prostate Cancer, 72 h treatment
Description: as §1, §2, §3, §4

SW480 = assay: Cancer cell growth inhibition (CellTiter-Glo), SW480; assay type: cell-based, Human; settings: Colorectal Cancer, SW480, 72 h treatment
Description: as §1, §2, §3, §4

PC-3 = assay: Cancer cell growth inhibition (CellTiter-Glo), PC-3; assay type: cell-based, Human; settings: Prostate Cancer, PC-3, 72 h treatment
Description: as §1, §2, §3, §4

NCI-H1703 = assay: Cancer cell growth inhibition (CellTiter-Glo), NCI-H1703; assay type: cell-based, Human; settings: Lung Cancer, NCI-H1703, 72 h treatment
Description: as §1, §2, §3, §4

SK-BR-3 = assay: Cancer cell growth inhibition (CellTiter-Glo), SK-BR-3; assay type: cell-based, Human; settings: Breast Cancer, SK-BR-3, 72 h treatment
Description: as §1, §2, §3, §4

KB = assay: Cancer cell growth inhibition (CellTiter-Glo), KB; assay type: cell-based, Human; settings: Oral Cancer, 72 h treatment
Description: as §1, §2, §3, §4

CNE2 = assay: Cancer cell growth inhibition (CellTiter-Glo), CNE2; assay type: cell-based, Human; settings: Nasopharyngeal, CNE2, 72 h treatment
Description: as §1, §2, §3, §4

A375 = assay: Cancer cell growth inhibition (CellTiter-Glo), A375; assay type: cell-based, Human; settings: Melanoma, A375, 72 h treatment
Description: as §1, §2, §3, §4

SK-MEL-5 = assay: Cancer cell growth inhibition (CellTiter-Glo), SK-MEL-5; assay type: cell-based, Human; settings: Melanoma, SK-MEL-5, 72 h treatment
Description: as §1, §2, §3, §4

MCG803 = assay: Cancer cell growth inhibition (CellTiter-Glo), MCG803; assay type: cell-based, Human; settings: Gastric Cancer, MCG803, 72 h treatment
Description: as §1, §2, §3, §4

K562 = assay: Cancer cell growth inhibition (CellTiter-Glo), K562; assay type: cell-based, Human; settings: CML, K562, 72 h treatment
Description: as §1, §2, §3, §4

SK-MES-1 = assay: Cancer cell growth inhibition (CellTiter-Glo), SK-MES-1; assay type: cell-based, Human; settings: Lung Cancer, SK-MES-1, 72 h treatment
Description: as §1, §2, §3, §4

NCI-N87 = assay: Cancer cell growth inhibition (CellTiter-Glo), NCI-N87; assay type: cell-based, Human; settings: Gastric Cancer, NCI-N87, 72 h treatment
Description: as §1, §2, §3, §4

786-O = assay: Cancer cell growth inhibition (CellTiter-Glo), 786-O; assay type: cell-based, Human; settings: Kidney Cancer, 72 h treatment
Description: as §1, §2, §3, §4

OVCAR3 = assay: Cancer cell growth inhibition (CellTiter-Glo), OVCAR3; assay type: cell-based, Human; settings: Ovarian Cancer, OVCAR3, 72 h treatment
Description: as §1, §2, §3, §4

NCI-H460 = assay: Cancer cell growth inhibition (CellTiter-Glo), NCI-H460; assay type: cell-based, Human; settings: Lung Cancer, NCI-H460, 72 h treatment
Description: as §1, §2, §3, §4

PANC-1 = assay: Cancer cell growth inhibition (CellTiter-Glo), PANC-1; assay type: cell-based, Human; settings: Pancreatic Cancer, PANC-1, 72 h treatment
Description: as §1, §2, §3, §4

SK-HEP-1 = assay: Cancer cell growth inhibition (CellTiter-Glo), SK-HEP-1; assay type: cell-based; settings: Homo sapiens, SK-HEP1; Liver Cancer, SK-HEP-1, 72 h treatment
Description: as §1, §2, §3, §4

BT474 = assay: Cancer cell growth inhibition (CellTiter-Glo), BT474; assay type: cell-based; settings: Homo sapiens, BT-474; Breast Cancer, BT474, 72 h treatment
Description: as §1, §2, §3, §4

HCT-116 = assay: Cancer cell growth inhibition (CellTiter-Glo), HCT-116; assay type: cell-based; settings: Homo sapiens; Colorectal Cancer, HCT-116, 72 h treatment
Description: as §1, §2, §3, §4

SW620 = assay: Cancer cell growth inhibition (CellTiter-Glo), SW620; assay type: cell-based; settings: Homo sapiens, SW-620; Colorectal Cancer, SW620, 72 h treatment
Description: as §1, §2, §3, §4

Colo205 = assay: Cancer cell growth inhibition (CellTiter-Glo), Colo205; assay type: cell-based; settings: Homo sapiens, COLO 205; Colorectal Cancer, Colo205, 72 h treatment
Description: as §1, §2, §3, §4

143b = assay: Cancer cell growth inhibition (CellTiter-Glo), 143b; assay type: cell-based; settings: Homo sapiens, Osteosarcoma, 72 h treatment
Description: as §1, §2, §3, §4

MDA-MB-231 = assay: Cancer cell growth inhibition (CellTiter-Glo), MDA-MB-231; assay type: cell-based; settings: Homo sapiens; Breast Cancer, MDA-MB-231, 72 h treatment
Description: as §1, §2, §3, §4

MIAPaCa-2 = assay: Cancer cell growth inhibition (CellTiter-Glo), MIAPaCa-2; assay type: cell-based; settings: Homo sapiens, MIA PaCa-2; Pancreatic Cancer, MIAPaCa-2, 72 h treatment
Description: as §1, §2, §3, §4

HepG2 = assay: Cancer cell growth inhibition (CellTiter-Glo), HepG2; assay type: cell-based; settings: Homo sapiens; Liver Cancer, HepG2, 72 h treatment
Description: as §1, §2, §3, §4

Compound: COc1cccc2c1C(=O)c1c(O)c3c(c(O)c1C2=O)C[C@@](O)(C(=O)CO)C[C@@H]3O[C@H]1C[C@H](N)[C@H](O)[C@H](C)O1 [Doxorubicin, reference compound]
- IC50 (HT-1080): 0.27 µM

Compound: N.N.[Cl][Pt][Cl] [Cisplatin, reference compound]
- IC50 (MCF-7): 22.2 µM
- IC50 (SK-OV-3): 9.88 µM
- IC50 (Calu-6): 2.45 µM
- IC50 (Bx-PC-3): 4.73 µM
- IC50 (DLD-1): 11.3 µM
- IC50 (LoVo): 10.4 µM
- IC50 (A549): 8.22 µM
- IC50 (U-87MG): 4.76 µM
- IC50 (DU145): 1.02 µM
- IC50 (RPMI-8226): 4.57 µM
- IC50 (BGC-823): 1.15 µM
- IC50 (HT-29): 12.2 µM
- IC50 (Hep3B): 3.96 µM
- IC50 (LNCaP): 6.51 µM
- IC50 (SW480): 46.6 µM
- IC50 (PC-3): 59.5 µM
- IC50 (NCI-H1703): 7.56 µM
- IC50 (SK-BR-3): 3.18 µM
- IC50 (KB): 10.4 µM
- IC50 (CNE2): 6.58 µM
- IC50 (A375): 3.16 µM
- IC50 (SK-MEL-5): 5.81 µM
- IC50 (MCG803): 5.08 µM
- IC50 (K562): 14.8 µM
- IC50 (SK-MES-1): 9.49 µM
- IC50 (NCI-N87): 4.21 µM
- IC50 (786-O): 3.23 µM
- IC50 (OVCAR3): 4.47 µM
- IC50 (NCI-H460): 1.6 µM
- IC50 (PANC-1): 22 µM

Compound: CO[C@@]12[C@H](COC(N)=O)C3=C(C(=O)C(C)=C(N)C3=O)N1C[C@@H]1N[C@@H]12 [Mitomycin, reference compound]
- IC50 (SK-HEP-1): 8.12 µM
- IC50 (BT474): 30.3 µM
- IC50 (HCT-116): 0.82 µM
- IC50 (SW620): 1.22 µM
- IC50 (Colo205): 2.67 µM
- IC50 (143b): 0.64 µM
- IC50 (MDA-MB-231): 19.8 µM
- IC50 (MIAPaCa-2): 0.63 µM
- IC50 (HepG2): 0.91 µM
